Reference: patent US5874472A, “Aminoacid derivatives as no synthase inhibitors” (Glaxo Wellcome Inc., priority 1993, dated 1999)

Assays:
Assay type in all cases: biochemical
human placental NOS = target: T1, human placental NOS (Homo sapiens, UniProt P29474); test: Inhibition of human placental NOS (citrulline formation); conditions: 1 μM L-[14C] arginine; pH 7.4; calmodulin, CaCl2
T1 construct: Purification of NOS from human placenta; from tissue; host or cells: fresh human placenta, amnion and chorion removed; ammonium sulfate and 2',5' ADP agarose purified
Method: It is noted that the NO synthase isolated from human placenta most probably represents the endothelial constitutive isoenzyme.
Purification of NOS from human placenta.
Amion and chorion were removed from fresh placenta, which was then rinsed with 0.9% NaCl. The tissue was homogenized in a Waring blender in 3 volumes of HEDS buffer (20 mM Hepes pH 7.8, 0.1 mM EDTA, 5 mM DTT, 0.2M sucrose) plus 0.1 mM PMSF.
The homogenate was filtered through cheesecloth and then centrifuged at 1000 g for 20 min. The supernatant was recentrifuged at 27500 g for 30 min. Solid ammonium sulfate was added to the supernatant to give 32% saturation. Precipitated protein was pelleted at 25,000 g and then redissolved in a minimal volume of HEDS buffer plus 0.1 mM PMSF, 10 μg/ml leupeptin and soybean trypsin inhibitor, and 1 μg/ml pepstatin. The redissolved pellet was centrigued at 15000 g for 10 min. To the supernatant was added 1/20 volume of 2',5' ADP agarose resin (Sigma), and the slurry was mixed slowly overnight. In morning, slurry was packed into a column. The resin was sequentially washed with HEDS, 0.5M NaCl in HEDS, HEDS, and then NOS was eluted with 10 mM NADPH in HEDS. The enzyme could be concentrated by ultrafiltration and quick frozen and stored at -70° C. without loss in activity for at least 6 months.
Assay for human placental NOS
(§1) NOS was assayed for the formation of citrulline following the procedure of Schmidt et al (PNAS 88 365-369, 1991) with these modifications: 20 mM Hepes, pH 7.4, 10 μg/ml calmodulin, 2.5 mM CaCl2 2.5 mM DTT, 125 μM NADPH 10 μM H4 Biopterin, 0.5 mg/ml BSA, and 1 μM L-[^14 C] arginine (New England Nuclear). Linearity of NOS-catalyzed rate was confirmed prior to kinetic studies that used single time point determination of rate.

inducible human NOS = target: T2, inducible human NOS (Homo sapiens, UniProt P35228); test: Inhibition of inducible human NOS (citrulline formation), enzyme from cytokine-induced DLD-1 cells; conditions: NOS from cytokine-induced DLD-1 cells; 1 μM L-[14C] arginine; pH 7.4; 10 μM FAD, no calmodulin/CaCl2
T2 construct: Purification of NOS cytokine-induced human colorectal adenocarcinoma DLD-1 cells; host or cells: DLD-1 cells induced with interferon-gamma, interleukin-6, tumor necrosis factor and interleukin-1beta; 2',5' ADP Sepharose purified
Method: as §1
Purification of NOS cytokine-induced human colorectal adenocarcinoma DLD-1 cells.
DLD-1 (ATCC No. CCL 221) were grown at 37° C., 5% CO2 in RPMI 1640 medium supplemented with L- glutamin, penicillin, streptomycin, and 10% heat-inactivated fetal bovine serum. Cells were grown to confluency and then the following cocktail of cytokines were added: 100 units/ml interferon-gamma, 200 units/ml interleukin-6, 10 ng/ml tumor necrosis factor, and 0.5 ng/ml interieukin-1β. At 10-24 hr post-induction, cells were harvested by scraping and washed with phosphate-buffered saline. Pelleted cells were stored at -70° C. Purification of the induced NOS was performed at 4° C. Crude extract was prepared by three cycles of freeze/thawing cells in TDGB (20 mM tris pH 7.5, 10% glycerol, 1 mM DTT, 2 μM tetrahydrobiopterin). Extract was applied directly onto a column of 2',5' ADP sepharse (Pharmacia). Resin was sequentially washed with TDGB, 0.5 M NaCl in TDGB, TDGB. NOS was eluted with 2 mM NADPH in TDGB. BSA was immediately added to give a final concentration of 1 mg/ml. NOS could be quick frozen and stored at -70° C. without loss in activity for at least 2 months.
Assay for inducible human NOs.
The formation of citrulline was assayed as described above except that 10 μM FAD was included and calmodulin and CaCl2 were excluded from the assay mix.

human brain NOS = target: T3, human brain NOS (Homo sapiens, UniProt P29475); test: Inhibition of human brain NOS (citrulline formation); conditions: Schmidt et al. 1991 procedure, 10 μM tetrahydrobiopterin included
T3 construct: Purification of NOS from human brain; from tissue; host or cells: frozen human brain; ammonium sulfate, 2',5' ADP-agarose, calmodulin-agarose
Method: Purification of NOS from human brain
Human brain NOS was prepared using variations of the procedures of Schmidt et al. (PNAS 88 365-369, 1991), Mayer et al. (Fed. Eur. Biochem. Soc. 288 187-191, 1991), and Bredt and Snyder, (PNAS 87 682-685, 1990). Briefly, frozen human brain (1050 gm) was homogenized in cold buffer A (50 mM HEPES, pH 7.5 (pH at RT) and 0.5 mM EDTA, 10 mM DTT, 3.6 L total volume) with a polytron. The mixture was centrifuged at 13,000 g for 1 hour and the supernatant was removed (about 2050 ml). To the supernatant, solid aimmonium sulfate (365 gm, about 30% of saturation) was added and stirred slowly for a total of 30 minutes. The precipitate was pelleted at 13,000 g for 30 minutes and the pellet was resuspended in ~400 mls of buffer A with 4 μM tetrahydrobiopterin, 1 μM FAD (Sigma), 1 μM FMN (Sigma). The solution was centrifuged at 41,000 g for 60 minutes. The supernatant was removed, frozen by pouring into liquid nitrogen, and stored overnight at -70° C. The mixture was thawed and passed through a 2',5' ADP-agarose column (0.4 g swelled in buffer A) at 4 ml/min. The column was washed with 100 ml buffer A, 200 ml buffer A with 500 mM NaCl, 100 ml Buffer A, then 30 ml buffer A with 5 mM NADPH. To the enzyme eluted from the column was added glycerol to 15%, CaCl2 to 1 mM, tetrahydrobiopterin to 10 μM, tween to 0.1% and FAD, FMN to 1 μM each. The enzyme was then passed through a 1 ml calmodulin-agarose column which had been equilibrated in Buffer A, 15% glycerol and 1 mM CaCl2. The column was washed with 15 ml Buffer A, 15% glycerol and 1 mM CaCl2, 15 ml of Buffer A, 15% glycerol and 5 mM EDTA, and then enzyme activity was eluted with 3 ml of Buffer A, 15% glycerol and 5 mM EDTA, 1 M NaCl. To the enzyme was added tetrahydrobiopterin to 10 μM, FAD and FMN to 1 μM, and tween to 0.1%. This solution was concentrated by centriprep-30 to a volume of approximately 500 μl. Human NOS was prepared completely analogously except the calmodulin-agarose column was not used. Enzyme activity was determined as described by Schmidt et al. 1991, except that 10 μM tetrahydrobiopterin was included in the assay.

| Ki (human placental NOS) [µM] | Ki (inducible human NOS) [µM] | Ki (human brain NOS) [µM] | Molecule |
| --- | --- | --- | --- |
| > 50 | > 50 | > 50 | 4-Acetamido-DL-phenylalanine [Compound 15] |
| ≤ 10 | > 50 | ≤ 50 | CNC(=N)Nc1ccc(CC(N)C(=O)O)s1 (racemic) [Compound 1, 3-(5-N'-methylguanidino-2-thienyl)-DL-alanine] |
| ≤ 50 | ≤ 50 | ≤ 10 | N=C(N)Nc1ccc(CC(N)C(=O)O)s1 (racemic) [Compound 2, 3-(5-Guanidino-2-thienyl)-DL-alanine] |
| ≤ 0.5 | ≤ 10 | ≤ 0.5 | NC(N)=Nc1ccccc1CC(N)C(=O)O (racemic) [Compound 3, 2-Guanidino-DL-phenylalanine] |
| ≤ 10 | > 50 | ≤ 50 | CCSC(=N)Nc1ccc(CC(N)C(=O)O)s1 (racemic) [Compound 4, 3-(5-S-ethylisothioureido-2-thienyl)-DL-alanine] |
| ≤ 10 | > 50 | ≤ 10 | N=C(Nc1ccc(CC(N)C(=O)O)s1)NC1CC1 (racemic) [Compound 5, 3-(5-N'-cyclopropylguanidino-2-thienyl)-DL-alanine] |
| ≤ 10 | ≤ 10 | ≤ 10 | C=CCNC(=N)Nc1ccc(CC(N)C(=O)O)s1 (racemic) [Compound 6, 3-(5-N'-allylguanidino-2-thienyl)-DL-alanine] |
| ≤ 10 | ≤ 10 | ≤ 10 | NC(=S)Nc1ccccc1CC(N)C(=O)O (racemic) [Compound 7, 2-thioureido-DL-phenylalanine] |
| ≤ 1 | ≤ 10 | ≤ 1 | CSC(=N)Nc1ccccc1CC(N)C(=O)O (racemic) [Compound 8, 2-(S-methylisothioureido)-DL-phenylalanine] |
| ≤ 0.5 | ≤ 1 | ≤ 0.5 | CCSC(=N)Nc1ccccc1CC(N)C(=O)O (racemic) [Compound 9, 2-(S-ethylisothioureido)-DL-phenylalanine] |
| ≤ 0.5 | ≤ 1 | ≤ 0.5 | C/N=C(/N)Nc1ccccc1CC(N)C(=O)O (racemic) [Compound 10, 2-(N'-methylguanidino)-DL-phenylalanine] |
| ≤ 0.5 | ≤ 1 | ≤ 1 | NC(=NC1CC1)Nc1ccccc1CC(N)C(=O)O (racemic) [Compound 11, 2-(N'-cyclopropylguanidino)-DL-phenylalanine] |
| ≤ 50 | > 50 | ≤ 50 | N=C(N)Nc1cccc(CC(N)C(=O)O)c1 (racemic) [Compound 12, 3-guanidino-DL-phenylalanine] |
| > 50 | > 50 | > 50 | N=C(N)Nc1ccc(CC(N)C(=O)O)cc1 (racemic) [Compound 13, 4-Guanidino-DL-phenylalanine] |
| > 50 | > 50 | > 50 | CC(=N)Nc1cccc(CC(N)C(=O)O)c1 (racemic) [Compound 14, 3-acetamidino-DL-phenylalanine] |
| ≤ 10 | > 50 | ≤ 10 | CNC(N)=Nc1cccc(CC(N)C(=O)O)c1 (racemic) [Compound 16, 3-N-methylguanidino-DL-phenylalanine] |
| ≤ 50 | > 50 | ≤ 50 | CNC(=N)Nc1ccc(CC(N)C(=O)O)cc1 (racemic) [Compound 17, 4-N-methylguanidino-DL-phenylalanine] |
| ≤ 50 | ≤ 10 | ≤ 50 | CC(=N)Nc1ccc(CC(N)C(=O)O)s1 (racemic) [Compound 18, 3-(5-(1-iminoethyl)amino)-2-thienyl)-DL-alanine] |
| ≤ 10 | ≤ 10 | – | CC(=N)Nc1ccccc1CC(N)C(=O)O (racemic) [Compound 19, 2-((1-iminoethyl)amino)-DL-phenylalanine] |
